Reference: patent publication US20200016231A1, “BIOFILM DISRUPTING COMPOSITION” (Whiteley Corporation Pty Ltd, priority 2016, published 2020)
Where two headings read alike, the source gives them in different places.

What was measured:
[1] = tested on: Multidrug resistant Acinetobacter Baumannii, (MRAB); test: microbe, parasite or virus in culture
[2] = tested on: E. cloacae; test: Biofilm viability, resazurin assay, Enterobacter species: E. cloacae; type: cell-based; details: read-out: % bacterial viability; for viability at 10000 µM: GSH 10 mM; for viability at 15000 µM: GSH 15 mM; for viability at 30000 µM: GSH 30 mM
Method: (§1) Bacterial isolates were grown in Tryptone Soya Broth (TSB) medium for 24 hours at 37° C., in a shaking incubator set at 150 rpm. After this time the organisms were harvested by centrifugation (5000×g, 5 min at 10° C.). After centrifugation, the supernatant liquid was removed and the bacterial pellet was suspended in 1×Phosphate Buffered Saline (PBS). To initiate biofilm growth, the bacterial suspension from PBS was immediately re-suspended in TSB and 250 μL of bacterial cell suspension (OD600=0.5±0.05) were added into the wells of 96-well plates (Corning Corp. USA) and incubated at 37° C. for 48 h at 150 r.p.m.
(§2) After 24 h, treated biofilms supernatant were replaced with 200 μL of 1×PBS, followed by addition of 15 μL of a 0.05% w/v solution of resazurin (Sigma-Aldrich), and incubated further at 37° C., 150 r.p.m.
(§3) After a further 24 h, the fluorescent intensity of the biofilm was determined at Ex544 nm and Em590 nm (Tecan infinite M1000 pro microplate reader). Results are plotted as percentage (%) of bacterial vaiability calculated based on fluorescent intensity. Control or untreated bacterial biofilm fluorescent intensity always considered as 100% bacterial viability and % viability under rest of treatment conditions were calculated with reference to control.
(§4) It should be noted that the Resazurin assay works by recording fluorescence intensity and depends upon two factors (total number of bacteria and total number of viable bacteria in a given biofilm sample).
(§5) The treatments shown in column 1 of Table 8 were tested against three clinical isolates of Enterobacter species.

[3] = tested on: methicillin-sensitive Staphylococcus aureus; test: microbe, parasite or virus in culture; type: cell-based; details: MSSA
Method: The treatments shown in column 1 of Table 4 were tested against three strains of methicillin-sensitive Staphylococcus aureus. […] The treatments shown in column 1 of Table 12 were tested against three strains of methicillin-sensitive Staphylococcus aureus.

[4] = tested on: E aerogenes; test: Biofilm viability, resazurin assay, Enterobacter species: E aerogenes; type: cell-based; details: E aerogenes 359475 Sternum, read-out: % bacterial viability
Method: as §1, §2, §3, §4, §5

[5] = tested on: Klebsiella pneumoniae; test: Biofilm viability, resazurin assay, Klebsiella pneumoniae clinical isolates; type: cell-based; details: read-out: % bacterial viability; for viability at 10000 µM: GSH 10 mM; for viability at 15000 µM: GSH 15 mM; for viability at 30000 µM: GSH 30 mM
Method: as §1, §2, §3, §4
The treatments shown in column 1 of table 7 were tested against three clinical isolates of Klebsiella pneumoniae.

[6] = tested on: Streptococcus pyogenes; test: Biofilm viability, resazurin assay, Streptococcus pyogenes clinical isolates; type: cell-based; details: read-out: % bacterial viability; for viability at 10000 µM: GSH 10 mM; for viability at 15000 µM: GSH 15 mM; for viability at 30000 µM: GSH 30 mM
Method: as §1, §2, §3, §4
The treatments shown in column 1 of Table 10 were tested against three clinical isolates of Enterobacter species. The treatments used are given in column 1, and the % bacterial viability for each strain tested are given in the subsequent columns (see also FIG. 9).

[7] = tested on: biofilms; details: GSH at 30 milli Molar; also non-Pseudomonad organisms (FIGS. 1-13)
Method: as §1, with “r.p.m. […]” for “r.p.m.”
as §3, §4

[8] = tested on: Escherichia coli; test: Biofilm viability, resazurin assay, Escherichia coli clinical isolates; type: cell-based; details: read-out: % bacterial viability; for viability at 10000 µM: GSH 10 mM; for viability at 15000 µM: GSH 15 mM; for viability at 30000 µM: GSH 30 mM
Method: as §1, §2, §3, §4
The treatments shown in column 1 of Table 9 were tested against three clinical isolates of Enterobacter species.

[9] = tested on: Staphylococcus agalactiae; test: organism not typed; type: cell-based, Streptococcus agalactiae; details: for viability at 10000 µM: GSH 10 mM; for viability at 15000 µM: GSH 15 mM; for viability at 30000 µM: GSH 30 mM
Method: The treatments shown in column 1 of Table 5 were tested against four strains of […] agalactiae, (veterinary strains ex Cow mastitis). […] The treatments shown in column 1 of Table 13 were tested against four strains of […] agalactiae, (veterinary strains ex Cow mastitis).

[10] = E. cloacae 359315 Left foot wound
[11] = read-out: % bacterial viability, S. agalactiae # 30
[12] = read-out: % bacterial viability, S. agalactiae # 44
[13] = read-out: % bacterial viability, S. agalactiae # 70
[14] = read-out: % bacterial viability, S. agalactiae # 88
[15] = read-out: % bacterial viability, S. agalactiae # 106

Molecule N[C@@H](CCC(=O)N[C@@H](CS)C(=O)NCC(=O)O)C(=O)O [GSH, glutathione] has a viability at 10000 µM ([1]; read-out: % bacterial viability, MRAB 1 014754 Urine, GSH 10 mM) of 73.6%, a viability at 15000 µM ([1]; read-out: % bacterial viability, MRAB 1 014754 Urine, GSH 15 mM) of 55.6% and a viability at 30000 µM ([1]; read-out: % bacterial viability, MRAB 1 014754 Urine, GSH 30 mM) of 20.4%. It also gave a viability at 10000 µM ([1]; read-out: % bacterial viability, MRAB 2 014801 Catheter, GSH 10 mM) of 70.8%, a viability at 15000 µM ([1]; read-out: % bacterial viability, MRAB 2 014801 Catheter, GSH 15 mM) of 41.2% and a viability at 30000 µM ([1]; read-out: % bacterial viability, MRAB 2 014801 Catheter, GSH 30 mM) of 2.45%. The viability at 10000 µM ([1]; read-out: % bacterial viability, MRAB 3 015069 Skin, GSH 10 mM) was 84.6%, the viability at 15000 µM ([1]; read-out: % bacterial viability, MRAB 3 015069 Skin, GSH 15 mM) was 63.2% and the viability at 30000 µM ([1]; read-out: % bacterial viability, MRAB 3 015069 Skin, GSH 30 mM) was 37.7%. The viability at 10000 µM ([1]; read-out: % bacterial viability, MRAB 4 015095 Hospital Environ, GSH 10 mM) was 68%, the viability at 15000 µM ([1]; read-out: % bacterial viability, MRAB 4 015095 Hospital Environ, GSH 15 mM) was 57.7% and the viability at 30000 µM ([1]; read-out: % bacterial viability, MRAB 4 015095 Hospital Environ, GSH 30 mM) was 13.8%. The viability at 10000 µM ([1]; read-out: % bacterial viability, MRAB 5 015103 Hospital Environ, GSH 10 mM) was 65.1%, the viability at 15000 µM ([1]; read-out: % bacterial viability, MRAB 5 015103 Hospital Environ, GSH 15 mM) was 51.5% and the viability at 30000 µM ([1]; read-out: % bacterial viability, MRAB 5 015103 Hospital Environ, GSH 30 mM) was 16.7%. It also gave a viability at 10000 µM ([1]; read-out: % bacterial viability, MRAB 12 016419 Catheter, GSH 10 mM) of 80.8%, a viability at 15000 µM ([1]; read-out: % bacterial viability, MRAB 12 016419 Catheter, GSH 15 mM) of 49% and a viability at 30000 µM ([1]; read-out: % bacterial viability, MRAB 12 016419 Catheter, GSH 30 mM) of 18.4%. The viability at 10000 µM ([2]; E. cloacae 357768 Ear) was 62.8%, the viability at 15000 µM ([2]; E. cloacae 357768 Ear) was 38.9% and the viability at 30000 µM ([2]; E. cloacae 357768 Ear) was 0%. It also gave a viability at 10000 µM [2, 10] of 84.7%, a viability at 15000 µM [2, 10] of 74% and a viability at 30000 µM [2, 10] of 19.5%. For the same molecule, the viability at 10000 µM ([3]; read-out: % bacterial viability, MSSA - 0800 DFU, GSH 10 mM) was 82.4%, the viability at 15000 µM ([3]; read-out: % bacterial viability, MSSA - 0800 DFU, GSH 15 mM) was 61.7% and the viability at 30000 µM ([3]; read-out: % bacterial viability, MSSA - 0800 DFU, GSH 30 mM) was 20.1%. For the same molecule, the viability at 10000 µM ([3]; read-out: % bacterial viability, MSSA - 34397 Left elbow, GSH 10 mM) was 88.7%, the viability at 15000 µM ([3]; read-out: % bacterial viability, MSSA - 34397 Left elbow, GSH 15 mM) was 61.3% and the viability at 30000 µM ([3]; read-out: % bacterial viability, MSSA - 34397 Left elbow, GSH 30 mM) was 1.06%. For the same molecule, the viability at 10000 µM ([3]; read-out: % bacterial viability, MSSA - 34654 Right toe, GSH 10 mM) was 86.1%, the viability at 15000 µM ([3]; read-out: % bacterial viability, MSSA - 34654 Right toe, GSH 15 mM) was 70.5% and the viability at 30000 µM ([3]; read-out: % bacterial viability, MSSA - 34654 Right toe, GSH 30 mM) was 15.3%. The viability at 10000 µM ([4]; GSH 10 mM) was 79%, the viability at 15000 µM ([4]; GSH 15 mM) was 55.1% and the viability at 30000 µM ([4]; GSH 30 mM) was 14.6%. For the same molecule, the viability at 10000 µM ([5]; 374450 Catheter urine) was 86%, the viability at 15000 µM ([5]; 374450 Catheter urine) was 72.8% and the viability at 30000 µM ([5]; 374450 Catheter urine) was 16.8%. It also gave a viability at 10000 µM ([5]; 377951 Left hip wound) of 81.6%, a viability at 15000 µM ([5]; 377951 Left hip wound) of 70.8% and a viability at 30000 µM ([5]; 377951 Left hip wound) of 9.13%. For the same molecule, the viability at 10000 µM ([5]; 385261 Neck wound) was 78.8%, the viability at 15000 µM ([5]; 385261 Neck wound) was 62.5% and the viability at 30000 µM ([5]; 385261 Neck wound) was 14.1%. It also gave a viability at 10000 µM ([6]; 361194 Left leg boil) of 55.6%, a viability at 15000 µM ([6]; 361194 Left leg boil) of 35.8% and a viability at 30000 µM ([6]; 361194 Left leg boil) of 4.3%. For the same molecule, the viability at 10000 µM ([6]; 371982 Skin Wound) was 99.8%, the viability at 15000 µM ([6]; 371982 Skin Wound) was 90.2% and the viability at 30000 µM ([6]; 371982 Skin Wound) was 15.4%. For the same molecule, the viability at 10000 µM ([6]; 386596 Head Wound) was 67.7%, the viability at 15000 µM ([6]; 386596 Head Wound) was 42.7% and the viability at 30000 µM ([6]; 386596 Head Wound) was 22.3%. For the same molecule, the “killing/disrupting biofilms compared with antibiotics” value [7] was “significantly higher effect than antibiotics”, the viability at 10000 µM ([8]; 362805 Exit) was 75.7% and the viability at 15000 µM ([8]; 362805 Exit) was 71.8%. The viability at 30000 µM ([8]; 362805 Exit) was 0.7%, the viability at 10000 µM ([8]; 365714 Wound) was 108% and the viability at 15000 µM ([8]; 365714 Wound) was 93.4%. It also gave a viability at 30000 µM ([8]; 365714 Wound) of 12.3%, a viability at 10000 µM ([8]; 366290 Drain fluid) of 69.8% and a viability at 15000 µM ([8]; 366290 Drain fluid) of 68.7%. It also gave a viability at 30000 µM ([8]; 366290 Drain fluid) of 3.9%, a viability at 10000 µM [9, 11] of 104% and a viability at 15000 µM [9, 11] of 80.7%. The viability at 30000 µM [9, 11] was 35.3%, the viability at 10000 µM [9, 12] was 87% and the viability at 15000 µM [9, 12] was 73.9%. The viability at 30000 µM [9, 12] was 29.2%, the viability at 10000 µM [9, 13] was 89.2% and the viability at 15000 µM [9, 13] was 79.4%. The viability at 30000 µM [9, 13] was 38.3%, the viability at 10000 µM [9, 14] was 88% and the viability at 15000 µM [9, 14] was 81.6%. The viability at 30000 µM [9, 14] was 25%, the viability at 10000 µM [9, 15] was 103% and the viability at 15000 µM [9, 15] was 83.2%. For the same molecule, the viability at 30000 µM [9, 15] was 29.2%.
